From ChEMBL document CHEMBL2434892, “Flavones as isosteres of 4(1H)-quinolones: discovery of ligand efficient and dual stage antimalarial lead compounds” (Eur J Med Chem, 2013)

Key:
Plasmodium falciparum = experiment: Antiplasmodial activity against chloroquine-resistant blood stage of Plasmodium falciparum W2 infected in human RBC after 48 hrs by flow cytometric analysis; type: functional, organism-based; conditions: W2, 48 h
Plasmodium berghei [1] = experiment: microbe, parasite or virus in culture; conditions: Huh-7, Liver
Description: Antiplasmodial activity against liver sporozoite stage of Plasmodium berghei expressing luciferase and GFP infected in human HuH7 cells assessed as inhibition of parasite development incubated for 1 hr prior to parasite infection measured after 48 hrs by Alamar blue assay

[2] = Cytotoxicity against human HuH7 cells assessed as cell viability after 48 hrs by Alamar blue assay; type: cell-based, Huh-7
Plasmodium berghei [3] = experiment: Antiplasmodial activity against liver sporozoite stage of Plasmodium berghei ANKA expressing GFP infected in human HuH7 cells assessed as inhibition of parasite development after 24 hrs by qRT-PCR analysis; type: functional, organism-based; conditions: Huh-7, Liver

| SMILES | IC50 (Plasmodium falciparum) | IC50 (Plasmodium berghei [1]) | CC50 at 48 h [2] | IC50 (Plasmodium berghei [3]) |
| --- | --- | --- | --- | --- |
| O=c1cc(-c2ccc(Oc3ccc(Cl)cc3)cc2)oc2ccc(Cl)cc12 | > 25 µM | – | – | – |
| O=c1cc(-c2ccc(Oc3ccc(Cl)cc3)cc2)oc2cc(Cl)ccc12 | 12.6 µM | – | – | – |
| Cc1ccc2c(=O)cc(-c3ccc(Oc4ccc(Cl)cc4)cc3)oc2c1 | 19.7 µM | 4.1 µM | > 50 µM | – |
| Cc1cc2oc(-c3ccc(Oc4ccc(Cl)cc4)cc3)cc(=O)c2cc1Cl | 23.2 µM | – | – | – |
| Cc1cc2oc(-c3ccc(Oc4ccc(OC(F)(F)F)cc4)cc3)cc(=O)c2cc1Cl | > 25 µM | – | – | – |
| O=c1cc(-c2ccc(Oc3cccc(OC(F)(F)F)c3)cc2)oc2ccccc12 | 14.9 µM | – | – | – |
| Cc1cc2oc(-c3ccc(OCCCC(F)(F)F)cc3)cc(=O)c2cc1Cl | 17.2 µM | – | – | – |
| Cc1cc2oc(-c3ccc(-c4ccccc4)cc3)cc(=O)c2cc1Cl | 14 µM | 8.5 µM | > 90 µM | – |
| O=c1c(Br)c(-c2ccc(-c3ccccc3)cc2)oc2cc(CBr)c(Cl)cc12 | 5.96 µM | – | – | – |
| Cc1cc2oc(-c3ccc(-c4ccccc4)cc3)c(Br)c(=O)c2cc1Cl | > 25 µM | – | – | – |
| O=c1cc(-c2ccc(-c3ccccc3)cc2)oc2ccccc12 | > 25 µM | – | – | – |
| O=c1cc(-c2ccc(-c3ccc(Cl)cc3)cc2)oc2ccccc12 | > 10 µM | – | – | – |
| O=c1cc(-c2ccc(-c3ccc(F)cc3)cc2)oc2ccccc12 | > 25 µM | – | – | – |
| O=Cc1ccc(-c2ccc(-c3cc(=O)c4ccccc4o3)cc2)cc1 | > 25 µM | – | – | – |
| Nc1ccc(-c2ccc(-c3cc(=O)c4ccccc4o3)cc2)cn1 | 3.88 µM | 1.9 µM | > 15 µM | – |
| O=c1cc(-c2ccc(-c3cnc4ccccc4c3)cc2)oc2ccccc12 | 5.17 µM | – | – | – |
| O=c1cc(-c2ccc(Oc3ccc(Cl)cc3)cc2)oc2ccccc12 | 21 µM | 6.2 µM | > 180 µM | – |
| O=c1cc(-c2ccc(Br)cc2)oc2ccccc12 | > 25 µM | – | – | – |
| O=c1c(-c2ccc(O)cc2)coc2cc(O)cc(O)c12 [GENISTEIN] | – | – | – | 20 µM |
